# According to US7098307B2, “Neo-tryptophan” (Mayo Foundation for Medical Education and Research, priority 1998, dated 2006):
# Square brackets hold non-standard residues; d marks the D form. Peptide text beside a SMILES is read from it. Ala(indol-4-yl) = N[C@@H](Cc1cccc2[nH]ccc12)C(=O)O; NMeR = CN[C@@H](CCCNC(=N)N)C(=O)O; Tle = CC(C)(C)[C@H](N)C(=O)O
# Assays:
# [1] = biological target: T1, rat NTR1 (Rattus norvegicus, UniProt P20789); assay: Competition binding with [3H]NT, membranes of CHO-K1 cells transfected with rat NTR1
# T1 construct: expressed in transfected cells; host or cells: CHO-K1
# T1 sequence (P20789 whole entry): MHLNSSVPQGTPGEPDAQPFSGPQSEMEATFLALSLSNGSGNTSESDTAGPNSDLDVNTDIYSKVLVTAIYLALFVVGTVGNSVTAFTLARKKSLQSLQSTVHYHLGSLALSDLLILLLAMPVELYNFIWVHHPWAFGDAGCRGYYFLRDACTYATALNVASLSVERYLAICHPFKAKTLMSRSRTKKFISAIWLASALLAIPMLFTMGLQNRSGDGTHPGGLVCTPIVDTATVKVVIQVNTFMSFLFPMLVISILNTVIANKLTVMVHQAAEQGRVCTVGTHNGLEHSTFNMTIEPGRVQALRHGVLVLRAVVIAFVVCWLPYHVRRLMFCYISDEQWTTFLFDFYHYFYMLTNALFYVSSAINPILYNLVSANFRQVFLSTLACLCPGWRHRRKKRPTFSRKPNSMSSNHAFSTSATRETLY
# Method: CHO-K1 cells were stably transfected with nucleic acid encoding either the human NTR1 or the rat NTR1, and cultured in 150 mm petri plates with 35 mL of Dulbecco-modified Eagle's medium containing 100 μM minimal essential medium nonessential amino acids (GIBCO) supplemented with 5% (v/v) FetalClone II bovine serum product (Hyclone Labs, Logan, Utah). CHO cells (subculture 9–19) were harvested at confluency. Briefly, the medium from each plate was removed by aspiration, and the cells washed with 6 mL of 50 mM Tris-HCl (pH 7.4) and resuspended in 5–10 mL of Tris-HCl by scraping the cells with a rubber spatula. The resuspended cells were placed into a centrifuge tube and collected by centrifugation at 300× g for five minutes at 4° C. in a GPR centrifuge (Beckman Instruments, Fullerton, Calif.). The cellular pellet (in 50 mM Tris-HCl, 1 mM EDTA, pH 7.4) was stored at […] until radioligand binding was performed.
# The supernatant was decanted and discarded, and the cellular pellet was resuspended in 2 mL of Tris-HCl, 1 mM EDTA (pH 7.4) followed by homogenization with a Brinkmann Polytron at setting 6 for ten seconds. Centrifugation was repeated as above and the supernatant was decanted and discarded. The resulting final cellular pellet was resuspended in 50 mM Tris-HCl, lmM EDTA, 0.1% bovine serum albumin, and 0.2 mM bacitracin.
# Incubation was at 20° C. for 30 minutes. Each reaction was terminated by addition of cold 0.9% NaCl (5×1.5 mL) followed by rapid filtration through a GF/B filter strip that had been pretreated with 0.2% polyethylenimine.
# [2] = biological target: 5HT2A receptor (Homo sapiens, UniProt P28223); assay: Competitive binding with [3H]ketanserin, human brain tissue
# Chain of 5HT2A receptor (P28223 whole entry): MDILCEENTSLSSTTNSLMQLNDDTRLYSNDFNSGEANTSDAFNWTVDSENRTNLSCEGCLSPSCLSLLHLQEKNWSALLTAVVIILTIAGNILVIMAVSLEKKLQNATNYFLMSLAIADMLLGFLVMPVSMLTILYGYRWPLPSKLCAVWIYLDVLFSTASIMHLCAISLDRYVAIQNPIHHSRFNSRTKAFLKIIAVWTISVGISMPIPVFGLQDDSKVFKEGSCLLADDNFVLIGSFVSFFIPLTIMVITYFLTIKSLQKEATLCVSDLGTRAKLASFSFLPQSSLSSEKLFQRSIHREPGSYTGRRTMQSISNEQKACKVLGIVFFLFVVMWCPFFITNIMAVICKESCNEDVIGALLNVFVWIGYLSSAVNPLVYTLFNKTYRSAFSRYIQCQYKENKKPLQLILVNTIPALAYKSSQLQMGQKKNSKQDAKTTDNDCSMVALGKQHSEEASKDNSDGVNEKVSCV
smiles,measurement,setting,value
CN[C@@H](CCCNC(=N)N)C(=O)N[C@@H](CCCCN)C(=O)N1CCC[C@H]1C(=O)N[C@@H](Cc1cccc2[nH]ccc12)C(=O)N[C@H](C(=O)N[C@@H](CC(C)C)C(=O)O)C(C)(C)C [NT69L] (H-[NMeR]KP[Ala(indol-4-yl)][Tle]L-OH; N-terminus and C-terminus assumed),Kd,[1],0.00082 ± 7e-05 µM
same,increase in binding affinity at the rat receptor versus Eisai,[1],6 fold
same,Kd,[2],34.6 µM
